Read-outs that look alike come from different tables or passages of the source.
Experiments:
[1] = system: vancomycin- and gentamicin-resistant Enterococcus faecium; experiment: microbe, parasite or virus in culture; type: cell-based
Description: The agents of the present invention are not limited to the reversal of resistance in Staphylococcus. The test strains in Table 5 are patient-isolates of vancomycin- and gentamicin-resistant Enterococcus faecium. At the time of isolation, they were commonly resistant to all clinically useable antimicrobial agents.

MRSA [2] = type: cell-based, Staphylococcus aureus; conditions: 2% glycine; only in the presence of glycine
MRSA [3] = type: cell-based, Staphylococcus aureus; conditions: for MIC of methicillin: glycine 0.02M [0.15%]
Description: Stored frozen plasma was pooled from five subjects.
Human plasma may bind or otherwise inactivate foreign substances and good activity in plasma is indicative of good in vivo activity.

MRSA [4] = experiment: Screening on Isosensitest agar with incorporated BTA and 10 μg methicillin discs; type: cell-based, Staphylococcus aureus; conditions: BTA 0.01-1.0% in Isosensitest agar; 10 μg methicillin discs; reference MRSA (type strain), OMRSA, EMRSA-1, EMRSA-16
Method: To find substances related to GBE that might have increased potency, various substances, including those with additional glycine moieties and benzylates, have been screened. Screening was carried out using Isosensitest agar (Oxoid, UK) into which various levels of potential BTAs were incorporated at levels between 0.01 and 1.0%. The agar with incorporated BTA was then used in the manner of a standard antibiotic sensitivity test using 10 μg methicillin discs. The test organism was inoculated onto the agar surface at a concentration suitable to achieve confluent growth after 18 hours incubation at 30° C. After incubation, zone diameters were compared with that achieved by the control plate (Isosensitest alone) for each test organism.

Structure (SMILES): NCC(=O)O [Glycine, glycine]
- strains tested achieving the target MIC of vancomycin of 2 mg/l ([1]; 0.2M glycine, Table 5): 50%
- MIC of vancomycin ([1]; ATCC 29212, glycine 0.02M): 4 µg/mL
- MIC of vancomycin ([1]; ATCC 29212, glycine 0.2M): 2 µg/mL
- MIC of vancomycin ([1]; BBC, glycine 0.02M): 16 µg/mL
- MIC of vancomycin ([1]; BBC, glycine 0.2M): 4 µg/mL
- MIC of vancomycin ([1]; E254, glycine 0.02M): 16 µg/mL
- MIC of vancomycin ([1]; E254, glycine 0.2M): 4 µg/mL
- MIC of vancomycin ([1]; E267, glycine 0.02M): 16 µg/mL
- MIC of vancomycin ([1]; E267, glycine 0.2M): 4 µg/mL
- MIC of vancomycin ([1]; E271, glycine 0.02M): 8 µg/mL
- MIC of vancomycin ([1]; E271, glycine 0.2M): 2 µg/mL
- MIC of vancomycin ([1]; E285, glycine 0.02M): 16 µg/mL
- MIC of vancomycin ([1]; E285, glycine 0.2M): 2 µg/mL
- MIC of vancomycin ([1]; E297, glycine 0.02M): 8 µg/mL
- MIC of vancomycin ([1]; E297, glycine 0.2M): 2 µg/mL
- MIC of vancomycin ([1]; GBC, glycine 0.02M): 8 µg/mL
- MIC of vancomycin ([1]; GBC, glycine 0.2M): 4 µg/mL
- MIC of vancomycin ([1]; S226, glycine 0.02M): 8 µg/mL
- MIC of vancomycin ([1]; S226, glycine 0.2M): 4 µg/mL
- MIC of vancomycin ([1]; S227, glycine 0.02M): 32 µg/mL
- MIC of vancomycin ([1]; S227, glycine 0.2M): 4 µg/mL
- MIC of vancomycin ([1]; S283, glycine 0.02M): 8 µg/mL
- MIC of vancomycin ([1]; S283, glycine 0.2M): 2 µg/mL
- MIC of vancomycin ([1]; S302, glycine 0.02M): 8 µg/mL
- MIC of vancomycin ([1]; S302, glycine 0.2M): 4 µg/mL
- MIC of vancomycin ([1]; S315, glycine 0.02M): 4 µg/mL
- MIC of vancomycin ([1]; S315, glycine 0.2M): 1 µg/mL
- MIC of vancomycin ([1]; S317, glycine 0.02M): 32 µg/mL
- MIC of vancomycin ([1]; S317, glycine 0.2M): 4 µg/mL
- MIC of vancomycin ([1]; S319, glycine 0.02M): 16 µg/mL
- MIC of vancomycin ([1]; S319, glycine 0.2M): 4 µg/mL
- MIC of vancomycin ([1]; S333, glycine 0.02M): 8 µg/mL
- MIC of vancomycin ([1]; S333, glycine 0.2M): 2 µg/mL
- MIC of vancomycin ([1]; S337, glycine 0.02M): 4 µg/mL
- MIC of vancomycin ([1]; S337, glycine 0.2M): 2 µg/mL
- MIC of vancomycin ([1]; S393, glycine 0.02M): 8 µg/mL
- MIC of vancomycin ([1]; S393, glycine 0.2M): 2 µg/mL
- MIC of vancomycin ([1]; S497, glycine 0.02M): 8 µg/mL
- MIC of vancomycin ([1]; S497, glycine 0.2M): 2 µg/mL
- MIC of vancomycin ([1]; S556, glycine 0.02M): 32 µg/mL
- MIC of vancomycin ([1]; S556, glycine 0.2M): 2 µg/mL
- MIC of vancomycin ([1]; WBC, glycine 0.02M): 8 µg/mL
- MIC of vancomycin ([1]; WBC, glycine 0.2M): 4 µg/mL
- transformation of MRSA into methicillin-sensitive strains (MRSA [2]): transformed all MRSA into methicillin-sensitive strains
- reduction in activity in human plasma (MRSA [3]; 1% human plasma, approximation from Table 3): about 75%
- MIC of methicillin (MRSA [3]; 5518 (EMRSA-1), +1% human plasma): 32 µg/mL
- MIC of methicillin (MRSA [3]; 5518 (EMRSA-1), no plasma): 8 µg/mL
- MIC of methicillin (MRSA [3]; L277, +1% human plasma): 32 µg/mL
- MIC of methicillin (MRSA [3]; L277, no plasma): 8 µg/mL
- MIC of methicillin (MRSA [3]; L278, +1% human plasma): 256 µg/mL
- MIC of methicillin (MRSA [3]; L278, no plasma): 64 µg/mL
- MIC of methicillin (MRSA [3]; L279, +1% human plasma): 256 µg/mL
- MIC of methicillin (MRSA [3]; L279, no plasma): 64 µg/mL
- MIC of methicillin (MRSA [3]; L280, +1% human plasma): 64 µg/mL
- MIC of methicillin (MRSA [3]; L280, no plasma): 16 µg/mL
- MIC of methicillin (MRSA [3]; L281, +1% human plasma): 32 µg/mL
- MIC of methicillin (MRSA [3]; L281, no plasma): 8 µg/mL
- MIC of methicillin (MRSA [3]; L282, +1% human plasma): 256 µg/mL
- MIC of methicillin (MRSA [3]; L282, no plasma): 32 µg/mL
- MIC of methicillin (MRSA [3]; L283, +1% human plasma): 128 µg/mL
- MIC of methicillin (MRSA [3]; L283, no plasma): 32 µg/mL
- MIC of methicillin (MRSA [3]; L284, +1% human plasma): 256 µg/mL
- MIC of methicillin (MRSA [3]; L284, no plasma): 32 µg/mL
- MIC of methicillin (MRSA [3]; L285, +1% human plasma): 256 µg/mL
- MIC of methicillin (MRSA [3]; L285, no plasma): 32 µg/mL
- MIC of methicillin (MRSA [3]; L286, +1% human plasma): 64 µg/mL
- MIC of methicillin (MRSA [3]; L286, no plasma): 32 µg/mL
- MIC of methicillin (MRSA [3]; L287, +1% human plasma): 128 µg/mL
- MIC of methicillin (MRSA [3]; L287, no plasma): 32 µg/mL
- MIC of methicillin (MRSA [3]; L288, +1% human plasma): 128 µg/mL
- MIC of methicillin (MRSA [3]; L288, no plasma): 32 µg/mL
- MIC of methicillin (MRSA [3]; L289, +1% human plasma): 256 µg/mL
- MIC of methicillin (MRSA [3]; L289, no plasma): 32 µg/mL
- MIC of methicillin (MRSA [3]; L290, +1% human plasma): 128 µg/mL
- MIC of methicillin (MRSA [3]; L290, no plasma): 32 µg/mL
- MIC of methicillin (MRSA [3]; L291, +1% human plasma): 64 µg/mL
- MIC of methicillin (MRSA [3]; L291, no plasma): 32 µg/mL
- MIC of methicillin (MRSA [3]; L292, +1% human plasma): 256 µg/mL
- MIC of methicillin (MRSA [3]; L292, no plasma): 32 µg/mL
- MIC of methicillin (MRSA [3]; L293, +1% human plasma): 128 µg/mL
- MIC of methicillin (MRSA [3]; L293, no plasma): 32 µg/mL
- MIC of methicillin (MRSA [3]; L294, +1% human plasma): 128 µg/mL
- MIC of methicillin (MRSA [3]; L294, no plasma): 16 µg/mL
- transformation of MRSA (methicillin disc zone diameter versus control plate) (MRSA [4]): transformed
